{"source": "patent US6784153B1", "about": "“Methods of homing molecules to lung using membrane dipeptidase” (The Burnham Institute, priority 1998, dated 2004)", "key": {"[1]": {"biological_target": "T1, murine MDP (Mus musculus, UniProt P31428)", "T1 construct": "The amplified 1.3 kb murine MDP cDNA was digested with KpnI and XbaI, and inserted into the same sites of the pcDNA3 expression vector; expressed in transfected cells; host or cells: COS-1 cells, pcDNA3 expression vector", "T1 sequence (P31428 17-384)": "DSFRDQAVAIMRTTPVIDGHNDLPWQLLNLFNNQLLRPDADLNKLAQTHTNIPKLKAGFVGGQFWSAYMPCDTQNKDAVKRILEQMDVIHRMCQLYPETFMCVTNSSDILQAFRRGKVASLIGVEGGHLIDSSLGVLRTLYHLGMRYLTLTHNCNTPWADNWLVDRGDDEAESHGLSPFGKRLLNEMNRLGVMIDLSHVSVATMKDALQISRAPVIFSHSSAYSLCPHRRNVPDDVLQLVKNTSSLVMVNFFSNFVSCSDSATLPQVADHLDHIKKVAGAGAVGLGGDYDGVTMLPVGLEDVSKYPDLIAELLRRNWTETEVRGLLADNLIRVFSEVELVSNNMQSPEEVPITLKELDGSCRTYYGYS", "assay": "phage binding to COS-1 cells transfected with MDP", "conditions": "5×10^6 COS-1 cells, 10^10 TU phage", "protocol": "The COS-1 cell line, which is known to have low or no detectable level of MDP activity, has been used extensively to study MDP structure and function (Keynan et al., supra, 1996; Keynan et al., Biochem, J. 326:47-51 (1997)). COS-1 cells were trasfected with murine MDP and used to assay binding to SEQ ID NOS: 1 and 2 as described below.\nFor transfection into COS-1 cells, a murine MDP expression vector was prepared as follows. Total mouse lung RNA was isolated using Qiagen RNA purification columns (Qiagen; Santa Clarita, Calif.) and used as a template for first strand cDNA synthesis with reverse transcriptase and a mixture of random hexamers and poly-dT oligonucleotides (GIBCO/BRL; Grand Island, N.Y.). Mouse MDP cDNA (Pasqualini et al., J. Cell Biol. 130:1189-1196 (1995)) was amplified from the cDNA pool by PCR using the oligonucleotide pair: […] (SEQ ID NO: 446), which contains a KpnI adaptor, and […] (SEQ ID NO: 447), which contains an XbaI adaptor, using Taq polymerase from GIBCO/BRL. The amplified 1.3 kb murine MDP cDNA was digested with KpnI and XbaI, and inserted into the same sites of the pcDNA3 expression vector (Invitrogen; Carlsbad, Calif.) using DNA restriction enzymes and T4 DNA ligase from New England Biolabs (Beverly, Mass.). Successful cloning of the murine MDP cDNA was confirmed by DNA sequencing. Transfection of the COS-1 cells was performed with the Superfect Reagent from Qiagen as recommended by the manufacturer.\nPhage binding to COS-1 cells transfected with MDP was determined as follows. Briefly, 10^7 COS-1 cells were transfected with 10 μg of either the MDP expression vector or the vector alone. After 48 hours, cells were scraped gently from the dish, washed once, and subjected to the phage binding assay or membrane dipeptidase activity assay described above. For the phage binding assay, 5×10^6 cells and 10^10 transducing units (TU) of phage input were used. For measurement of membrane dipeptidase activity, 10^6 cells were lysed in 100 μl of PBS/octylglycoside without protease inhibitors. A 10 μl aliquot of the extract was used to measure MDP activity."}, "[2]": {"system": "lung", "assay": "in vivo homing of phage displaying peptides to lung", "set-up": "species or system mice", "protocol": "(§1) For lung and pancreas, a mixture of phage libraries containing 10^10 TU was diluted in 200 μl DMEM and injected into the tail vein of anesthetized BALB/c mice (2 month old; Harlan Sprague Dawley; San Diego Calif.); AVERTIN (0.017 ml/g) was used as anesthetic (Pasqualini and Ruoslahti, supra, 1996). After 1-4 minutes, mice were snap frozen in liquid nitrogen or, after about 5 minutes of phage circulation, the mice were perfused through the heart with 5-10 ml of DMEM (SIGMA; St. Louis Mo.). To recover the phage, the organs from the perfused mice or partially thawed organs from snap frozen mice were collected and weighed, then were homogenized in 1 ml DMEM-PI (DMEM containing protease inhibitors (PI); phenylmethyl sulfonyl fluoride (PMSF; 1 mM), aprotinin (20 μg/ml), leupeptin (1 μg/ml)).\n(§2) Organ samples were washed 3 times with ice cold DMEM-PI containing 1% bovine serum albumin (BSA), then directly incubated with 1 ml K91-kan bacteria for 1 hr. Ten ml NZY medium containing 0.2 μg/ml tetracycline (NZY/tet) was added to the bacterial culture, the mixture was incubated in a 37° C. shaker for 1 hr, then 200 μl aliquots were plated in agar plates containing 40 μg/ml tetracycline (tet/agar).\n(§3) Approximately 250 to 300 individual bacterial colonies containing phage recovered from the various organs or tissues were grown for 16 hr in 5 ml NZY/tet. In some experiments, approximately 1000 individual bacteria containing phage were picked and the phage were amplified in 2 ml of NZY/tet or the entire plate containing phage was scraped, pooled and grown in bulk and processed for injection. Where phage were cultured separately, the cultures were pooled and the phage were injected into mice or rats as described above for a second round of in vivo panning. In some experiments, a third or fourth round of panning was performed. Phage DNA was purified from individual bacterial colonies obtained and the DNA sequences encoding the peptides expressed by selected phage were determined (see Koivunen et al., supra, 1994b).\nAfter two or three rounds of in vivo panning of mice injected with a cyclic CX3CX3CX3C (SEQ ID NO: 25) or a cyclic CX6C (SEQ ID NO: 26) phage display library, four peptides that homed to lung were identified.\nTo determine the specificity of lung homing of the individual peptides identified, phage displaying the peptides were amplified individually, diluted to the same input titer and administered to mice. Following administration, control kidney and brain organ was removed and the number of TU of phage in lung, kidney and brain was determined. The results shown in FIG. 2 reveal that 10× and 35× more phage having the peptide sequence CGFECVRQCPERC (SEQ ID NO: 1; GFE-1) bound to lung than to kidney and brain, respectively. […] The lung homing peptides CGFECVRQCPERC (SEQ ID NO: 1; GFE-1), CGFELETC (SEQ ID NO: 2; GFE-2), CTLRDRNC (SEQ ID NO: 15) and CIGEVEVC (SEQ ID NO: 16) are enriched in lung at 35×, 9×, 6× and 5×, respectively, over unselected phage (see FIG. 2)."}, "[3]": {"system": "adrenal gland", "assay": "in vivo panning of X7 library, adrenal gland", "set-up": "species or system mice", "protocol": "(§4) Following various in vivo panning screens, hundreds of thousands to millions of phage expressing homing peptides were recovered from the respective organ or tissue. Generally, the phage collected from a round of in vivo panning were plated on agar, about 250 to 300 clones were selected, grown in 5 ml cultures, then pooled and readministered for a subsequent round of in vivo panning (“regular method”). However, in some experiments, 1000 clones were selected, grown in 2 ml cultures, then pooled and administered for a subsequent round of screening; or the entire agar plate was scraped and all of the phage were cultured together and administered for a subsequent round of screening. The peptide inserts of various isolated phage were determined such that, of the millions of phage that homed, only a small number of sequences were identified.\nThe invention also provides adrenal gland homing peptides such as LMLPRAD (SEQ ID NO: 27) and LPRYLLS (SEQ ID NO: 28), which share a LPR motif (see Table 11), or the peptides R(Y/F)LLAGG (SEQ ID NO: 404) and RYPLAGG (SEQ ID NO: 389), which share the motif LAGG (SEQ ID NO: 430; see Table 10). The exemplified adrenal gland homing peptides were identified by injection of an X7 (SEQ ID NO: 29) library into mice. The peptides were isolated by the regular method.\nas §2\nApproximately 250 to 300 individual bacterial colonies containing phage recovered from the various organs or tissues were grown for 16 hr in 5 ml NZY/tet. […] Phage DNA was purified from individual bacterial colonies obtained and the DNA sequences encoding the peptides expressed by selected phage were determined (see Koivunen et al., supra, 1994b)."}, "[4]": {"system": "liver", "assay": "in vivo panning of X7 library, liver", "set-up": "species or system mice", "protocol": "as §4\nAlso provided are liver homing peptides. Such peptides were identified by injection of an X7 (SEQ ID NO: 29) library into mice. The peptides were isolated by the regular method (see Example II, Table 1, and Table 11, below).\nas §2\nas §3, with “Where phage were cultured separately, the cultures were pooled and the phage were injected into mice or rats as described above for a second round of in vivo panning. In some experiments, a third or fourth round of panning was performed.” left out"}, "[5]": {"system": "pancreas", "assay": "immunohistologic analysis of pancreas homing phage", "type": "in vivo, mice", "protocol": "Phage displaying homing peptides were detected in lung, pancreas and skin by immunostaining histologic sections obtained 5 min after administration of phage expressing a lung, pancreas or skin homing peptide (“peptide-phage”) to a mouse. Following administration of the peptide-phage, mice were handled as described above and various organs, including lung, pancreas and skin, were removed and fixed in Bouin's solution (SIGMA). Histologic sections were prepared and reacted with anti-M13 (phage) antibodies (Pharmacia Biotech; see U.S. Pat. No. 5,622,699, supra, 1997; Pasqualini and Ruoslahti, supra, 1996). Visualization of the bound anti-M13 antibody was performed using a second antibody conjugated to peroxidase (SIGMA) according to the manufacturer's instructions.\n(§5) Similar experiments were performed in pancreas using phage displaying the pancreas homing peptide, SWCEPGWCR (SEQ ID NO: 4). In these experiments, histological samples of the pancreas as well as control organs and tissues including lung and skin were prepared and examined by immunostaining as described above. […] Moreover, after intravenous injection of phage displaying SWCEPGWCR (SEQ ID NO: 4), the phage was recovered from uterus at a 6× higher level in comparison to unselected phage. Thus, SWCEPGWCR (SEQ ID NO: 4) homes to both pancreas and uterus."}, "[6]": {"system": "uterus", "assay": "homing of pancreas homing phage to uterus", "type": "in vivo, mice", "protocol": "as §5"}, "[7]": {"system": "pancreas", "assay": "in vivo homing of phage displaying peptides to pancreas", "set-up": "species or system mice", "protocol": "as §1, §2, §3\nAfter two or three rounds of in vivo panning of mice injected with a cyclic CX7C (SEQ ID NO: 24) phage display library, various pancreas homing peptides were identified (Table 3). In particular, the peptide sequence SWCEPGWCR (SEQ ID NO: 4) appeared repeatedly in the pancreas. To determine the specificity of SWCEPGWCR (SEQ ID NO: 4), a phage displaying the sequence was amplified individually, diluted to the same input titer and administered to mice. Following administration, control brain organ was removed and the number of TU of phage in each pancreas and was determined."}, "[8]": {"conditions": "individually amplified phage, FIG. 2"}}, "note": "“Also recorded” adds a separate entry of the source.", "data": [{"substance": "CGFELETC [lung homing peptide]", "values": [{"measurement": "phage bound to MDP transfected cells than to mock transfected cells", "setting": "[1]", "value": "also bound MDP transfected cells"}, {"measurement": "% OF MOTIF AMONG ALL CLONES", "setting": "[2]; LUNG", "value": 5, "unit": "%"}, {"measurement": "LUNG/BRAIN RATIO", "setting": "[2]; LUNG section", "value": 9}, {"measurement": "homing of lung homing phage to control kidney or brain", "setting": "[2]; control organs", "value": "few phage detected in kidney or brain; also recorded: no selective homing to kidney or brain was detected"}, {"measurement": "enriched in lung over unselected phage", "setting": "[2]; [8]", "value": 9, "unit": "×"}, {"measurement": "phage bound to lung than to brain", "setting": "[2]; [8]", "value": 20, "unit": "×"}, {"measurement": "phage bound to lung than to kidney", "setting": "[2]; [8]", "value": 12, "unit": "×"}, {"measurement": "enrichment in lung as compared to unselected phage", "setting": "[2]; mouse, in vivo", "value": 9, "unit": "fold"}]}, {"substance": "LMLPRAD [peptide from phage recovered from adrenal gland]", "values": [{"measurement": "% OF MOTIF AMONG ALL CLONES", "setting": "[3]; ADRENAL GLAND", "value": 11, "unit": "%"}, {"measurement": "adrenal gland/brain homing ratio", "setting": "[3]; ADRENAL GLAND section, adrenal gland as compared to brain", "value": 50}, {"measurement": "enrichment in adrenal gland as compared to brain", "setting": "[3]; mouse, in vivo", "value": 50, "unit": "fold"}]}, {"substance": "SRRFVGG [peptide from phage recovered from liver]", "values": [{"measurement": "% OF MOTIF AMONG ALL CLONES", "setting": "[4]", "value": 6, "unit": "%"}]}, {"substance": "SWCEPGWCR [pancreas homing peptide]", "values": [{"measurement": "immunostaining of pancreas", "setting": "[5]; 5 min after phage", "value": "staining in the capillaries and larger blood vessels of the exocrine pancreas"}, {"measurement": "staining of lung and skin after pancreas homing phage", "setting": "[5]; control tissues", "value": "nor was any staining observed in lung and skin"}, {"measurement": "phage recovered from uterus in comparison to unselected phage", "setting": "[6]; after intravenous injection", "value": 6, "unit": "×"}, {"measurement": "staining of uterus", "setting": "[6]; immunostaining", "value": "some staining of blood vessels within the uterus"}, {"measurement": "% OF MOTIF AMONG ALL CLONES", "setting": "[7]; PANCREAS (value printed on the SKIN heading line)", "value": 9, "unit": "%"}, {"measurement": "pancreas/brain phage ratio", "setting": "[7]; PANCREAS section, pancreas as compared to brain", "value": 20}, {"measurement": "phage bound to pancreas than to brain", "setting": "[7]; individually amplified phage", "value": "10 × and up to 20 ×"}, {"measurement": "enrichment of phage to the pancreas as compared to unselected phage", "setting": "[7]; mouse, in vivo", "value": 22, "unit": "×"}, {"measurement": "selectivity for pancreas over unselected phage and over brain", "setting": "[7]; mouse, in vivo", "value": 20, "unit": "fold"}]}, {"substance": "VKSVCRT [peptide from phage recovered from liver]", "values": [{"measurement": "% OF MOTIF AMONG ALL CLONES", "setting": "[4]", "value": 11, "unit": "%"}]}, {"substance": "WRQNMPL [peptide from phage recovered from liver]", "values": [{"measurement": "% OF MOTIF AMONG ALL CLONES", "setting": "[4]", "value": 6, "unit": "%"}]}]}
